Experiments:
Assay type in all cases: in vivo
[1] = tested on: Rhipicephalus microplus larvae (strain Parkhurst, resistant against synthetic pyrethroids); experiment: Rhipicephalus (Boophilus) microplus in-vitro contact test, larval cattle tick; conditions: 5 μg/cm^2 (=500 g/ha), after 48 hours, read-out: efficacy (larvae dead or moribund)
Description: Rhipicephalus (Boophilus) Microplus—In-Vitro Contact Tests Larval Cattle Tick (Strain Parkhurst, Resistant Against Synthetic Pyrethroids)
(§1) 9 mg compound is solved in 1 mL acetone and diluted with acetone to the desired concentration. 250 μL of the test solution is filled in 25 mL glass test tubes and homogeneously distributed on the inner walls by rotation and tilting on a shaking device (2 h at 30 rpm). With a compound concentration of 900 ppm, an inner surface of 44.7 cm^2 and a homogeneous distribution, a dose of 5 μg/cm^2 is achieved.
After the solvent has evaporated, each test tube is filled with 20-50 cattle tick larvae (Rhipicephalus microplus), closed with a perforated lid and incubated in a horizontal position at 85% relative humidity and 27° C. in an incubator. After 48 hours efficacy is determined. The larvae are patted on the ground of the tubes and negative geotactic behaviour is recorded.
An efficacy of 100% means all larvae are dead or moribund; 0% means no larvae are dead or moribund.

[2] = tested on: adult engorged female ticks (Rhipicephalus microplus); experiment: Rhipicephalus (Boophilus) microplus injection test; conditions: 168 h, after 7 days, read-out: efficacy (infertile eggs); for pest or weed control at 0.004 mg: 4 μg/animal; for pest or weed control at 0.02 mg: 20 μg/animal
Description: Rhipicephalus (Boophilus) microplus—Injection Test
(§2) Solvent: dimethyl sulfoxide
To produce a suitable preparation of active compound, 10 mg of active compound are dissolved in 0.5 mL solvent, and the concentrate is diluted with solvent to the desired concentration.
Five adult engorged female ticks (Rhipicephalus microplus) are injected with 1 μL compound solution into the abdomen. The ticks are transferred into replica plates and incubated in a climate chamber.
After 7 days egg deposition of fertile eggs is monitored. Eggs where fertility is not visible are stored in a climate chamber till hatching after about 42 days. An efficacy of 100% means all eggs are infertile; 0% means all eggs are fertile.

[3] = tested on: adult unfed cat fleas (Ctenocephalides felis); experiment: Ctenocephalides felis oral test; conditions: 48 h
Description: Ctenocephalides felis—Oral Test
as §2
To produce a suitable preparation of active compound, 10 mg of active compound are dissolved in 0.5 ml solvent, and the concentrate is diluted with cattle blood to the desired concentration.
Approximately 20 adult unfed cat fleas (Ctenocephalides felis) are placed in flea chambers. The blood chamber, sealed with parafilm on the bottom, are filled with cattle blood supplied with compound solution and placed on the gauze covered top of the flea chamber, so that the fleas are able to suck the blood. The blood chamber is heated to 37° C. whereas the flea chamber is kept at room temperature.
After 2 days mortality in % is determined. 100% means all the fleas have been killed; 0% means none of the fleas have been killed.

[4] = tested on: larvae of the banded cucumber beetle (Diabrotica balteata); experiment: Diabrotica balteata spray test; conditions: 168 h, 100 g/ha (=32 μg/well), after 7 days, wheat seeds, read-out: efficacy (seedlings grown like untreated, uninfected control)
Description: Diabrotica balteata—spray test
Solvent: 78.0 parts by weight of acetone
1.5 parts by weight of dimethylformamide
(§3) Emulsifier: alkylarylpolyglycol ether
(§4) To produce a suitable preparation of active compound, 1 part by weight of active compound is mixed with the stated amount of solvent, and the concentrate is diluted with water, containing an emulsifier concentration of 1000 ppm, to the desired concentration. Further test concentrations are prepared by dilution with emulsifier containing water.
Soaked wheat seeds (Triticum aestivum) are placed in a multiple well plate filled with agar and some water and are incubated for 1 day to germinate (5 seeds per well). The germinated wheat seeds are sprayed with a test solution containing the desired concentration of the active ingredient. Afterwards each unit is infected with 10-20 larvae of the banded cucumber beetle (Diabrotica balteata).
After 7 days efficacy in % is determined. 100% means all the seedlings have grown up like in the untreated, uninfected control; 0% means none of the seedlings have grown.

[5] = tested on: green peach aphid (Myzus persicae); experiment: Myzus persicae oral test; conditions: 120 h
Description: Solvent: 100 parts by weight acetone
To produce a suitable preparation of active compound, 1 part by weight of active compound is mixed with the stated amount of solvent, and the concentrate is diluted with water to the desired concentration. 50 μL compound solution is filled in microtiter plates and 150 μL IPL41 insect medium (33%+15% sugar) is added to obtain a total volume of 200 μL per well. Afterwards the plates are sealed with parafilm through which a mixed population of the green peach aphid (Myzus persicae) can suck on the compound preparation.
(§5) After 5 days mortality in % is determined. 100% means all aphids have been killed and 0% means none of the aphids have been killed.

[6] = tested on: fall armyworm larvae (Spodoptera frugiperda); experiment: Spodoptera frugiperda spray test; conditions: in Zea mays, 168 h
Description: Spodoptera frukiperda—Spray Test
(§6) Solvent: 78.0 parts by weight acetone • 1.5 parts by weight dimethylformamide
as §3
as §4, with “solvents” for “solvent,”, “and” for “and the concentrate”
Maize (Zea mays) leaf sections are sprayed with a preparation of the active ingredient of the desired concentration. Once dry, the leaf sections are infested with fall armyworm larvae (Spodoptera frugiperda).
After 7 days mortality in % is determined. 100% means all caterpillars have been killed and 0% means none of the caterpillars have been killed.

[7] = tested on: Aedes aegypti strain MONHEIM; experiment: Aedes aegypti test (AEDSAE surface treatment & contact assay); conditions: 24 hours after contact, read-out: efficacy (mortality); for mortality at 20 mg/m2: surface concentration 20 mg/m^2, 30 minutes exposure
Description: Aedes Aegypti Test (AEDSAE Surface Treatment & Contact Assay)
(§7) Solvent: Aceton+2000 ppm rapeseed oil methyl ester (RME)
(§8) In order to produce a sufficient, active ingredient containing solution it is necessary to solve the test compound in the solvent-mix (acetone at 2 mg/ml/RME 2000 ppm). This solution is pipetted onto a glazed tile and after evaporation of the acetone, adult mosquitoes of the species Aedes aegypti strain MONHEIM are placed onto the dried surface. The exposure time is 30 minutes. Mortality in percent (%) is determined 24 hours after contact of the insects to the treated surface. 100% mortality means that all tested insects are dead, whereas 0% means that no insect died.

[8] = tested on: Anopheles funestus strain FUMOZ-R; experiment: Anopheles funestus test (ANPHFU surface treatment & contact assay); conditions: surface concentration 20 mg/m^2, 30 minutes exposure, 24 hours after contact, read-out: efficacy (mortality)
Description: Anopheles funestus Test (ANPHFU Surface Treatment & Contact Assay)
as §7
as §8, with “Anopheles funestus” for “Aedes aegypti”, “FUMOZ-R (Hunt et al., Med. Vet. Entomol. 2005 September; 19(3): 271-275)” for “MONHEIM”

[9] = tested on: Blattella germanica strain PAULINIA; experiment: Blattella germanica test (BLTTGE surface treatment & contact assay); conditions: surface concentration 20 mg/m^2, 30 minutes exposure, 24 hours after contact, read-out: efficacy (mortality)
Description: Blattella germanica Test (BLTTGE Surface Treatment & Contact Assay)
as §7
as §8, with “animals” for “mosquitoes”, “Blattella germanica” for “Aedes aegypti”, “PAULINIA” for “MONHEIM”

[10] = tested on: green peach aphid (Myzus persicae); experiment: Myzus persicae spray test; conditions: foliar, 120 h, after 5 days, Chinese cabbage leaf disks
Description: Myzus persicae—spray test
as §6, §3
as §4, with “solvents” for “solvent,”, “and” for “and the concentrate”
Chinese cabbage (Brassica pekinensis) leaf disks infected with all instars of the green peach aphid (Myzus persicae), are sprayed with a preparation of the active ingredient of the desired concentration.
as §5

[11] = tested on: Musca domestica strain WHO-N; experiment: Musca domestica test (MUSCDO surface treatment & contact assay); conditions: 24 hours after contact, read-out: efficacy (mortality); for mortality at 4 mg/m2: surface concentration 4 mg/m^2, 30 minutes exposure; for mortality at 20 mg/m2: surface concentration 20 mg/m^2, 30 minutes exposure
Description: Musca domestica Test (MUSCDO Surface Treatment & Contact Assay)
as §7
as §8, with “flies” for “mosquitoes”, “Musca domestica” for “Aedes aegypti”, “WHO-N” for “MONHEIM”

[12] = tested on: adult cat fleas (Ctenocephalides felis); experiment: Ctenocephalides felis in-vitro contact test, adult cat flea; conditions: after 48 hours, read-out: efficacy (fleas dead or moribund)
Description: as §1, with “Ctenocephalides felis—In-Vitro Contact Tests Adult Cat Flea 9 mg” for “9 mg”
After the solvent has evaporated, each test tube is filled with 5-10 adult cat fleas (Ctenocephalidesfelis), closed with a perforated lid and incubated in a lying position at room temperature and relative humidity.
(§9) After 48 hours efficacy is determined. The fleas are patted on the ground of the tubes and are incubated on a heating plate at 45-50° C. for at most 5 minutes. Immotile or uncoordinated moving fleas, which are not able to escape the heat by climbing upwards, are marked as dead or moribund.
An efficacy of 100% means all fleas are dead or moribund; 0% means no fleas are dead or moribund.

[13] = tested on: adult brown dog ticks (Rhipicephalus sanguineus); experiment: Rhipicephalus sanguineus in-vitro contact test with adult brown dog ticks; conditions: 5 μg/cm^2 (=500 g/ha), after 48 hours, read-out: efficacy (ticks dead or moribund)
Description: Rhipicephalus sanguineus—In-Vitro Contact Tests with Adult Brown Dog Ticks
as §1
as §9, with “After the solvent has evaporated, each test tube is filled with 5-10 adult brown dog ticks (Rhipicephalus sanguineus), closed with a perforated lid and incubated in a lying position at room temperature and relative humidity. After” for “After”, “ticks” for “fleas”, “ticks,” for “fleas,”
An efficacy of 100% means all ticks are dead or moribund; 0% means no ticks are dead or moribund.

[14] = tested on: larvae of the southern green stink bug (Nezara viridula); experiment: Nezara viridula spray test; conditions: 96 h, after 4 days, barley plants
Description: Nezara viridula—Spray Test
Solvent: 78.0 parts by weight of acetone • • 1.5 parts by weight of dimethylformamide
as §3, §4
Barley plants (Hordeum vulgare) infested with larvae of the southern green stink bug (Nezara viridula) are sprayed with a test solution containing the desired concentration of the active ingredient.
After 4 days mortality in % is determined. 100% means all the stink bugs have been killed; 0% means none of the stink bugs have been killed.

Row | SMILES | pest or weed control at 5 µg/cm2 [1] | pest or weed control at 0.004 mg [2] | mortality at 100 ppm [3] | pest or weed control at 32 µg/disc, 100 g/ha [4] | mortality at 4 ppm [5] | mortality at 100 g/ha [6] | mortality at 20 mg/m2 [7] | mortality at 20 mg/m2 [8] | mortality at 20 mg/m2 [9] | mortality at 100 g/ha [10] | mortality at 4 mg/m2 ([7]; surface concentration 4 mg/m^2, 30 minutes exposure) | mortality at 4 mg/m2 [11] | mortality at 20 mg/m2 [11] | pest or weed control at 1 µg/cm2, 100 g/ha ([12]; 1 μg/cm^2 (=100 g/ha)) | pest or weed control at 5 µg/cm2, 500 g/ha ([12]; 5 μg/cm^2 (=500 g/ha)) | pest or weed control at 5 µg/cm2, 500 g/ha [13] | mortality at 100 g/ha [14] | pest or weed control at 0.02 mg [2]
1 | CC(NC(=O)c1cc(Cl)cc(C(F)(F)F)c1)c1nc(Br)nn1-c1ncccn1 (stereo not shown) [Example I-016] | 80% | 100% | 100% | 100% | 100% | 100% | 80 to 100% | 80 to 100% | 80 to 100% | – | – | – | – | – | – | – | – | –
2 | CC(NC(=O)c1cc(Cl)cc(OC(F)(F)F)c1)c1nc(Cl)nn1-c1ncccn1 (racemic) [Example I-001, 3-chloro-N-[1-(5-chloro-2-pyrimidin-2-yl-1,2,4-triazol-3-yl)ethyl]-5-(trifluoromethoxy)benzamide] | – | – | – | 100% | 100% | 100% | 80 to 100% | 80 to 100% | – | 90% | 80 to 100% | 80 to 100% | 80 to 100% | – | – | – | – | –
3 | CC(NC(=O)c1cc(Cl)nc(C(F)(F)F)c1)c1nc(I)nn1-c1ncccn1 (stereo not shown) [Example I-024] | 100% | – | – | 100% | – | – | – | – | – | – | – | – | – | 80% | 90% | 80% | 100% | –
4 | CC(NC(=O)c1cc(Br)cc(C(F)(F)F)c1)c1nc(Cl)nn1-c1ncccn1 (stereo not shown) [Example I-003] | 100% | 100% | 100% | 100% | 100% | 100% | 80 to 100% | – | 80 to 100% | – | – | 80 to 100% | 80 to 100% | – | – | 100% | – | 100%
5 | CC(NC(=O)c1cc(Cl)cc(C(F)(F)F)c1)c1nc(Br)nn1-c1ccc(Cl)cn1 (racemic) [Example I-018, N-[1-[5-bromo-2-(5-chloro-2-pyridyl)-1,2,4-triazol-3-yl]ethyl]-3-chloro-5-(trifluoromethyl)benzamide] | 80% | 80% | – | 100% | – | 83% | 80 to 100% | 80 to 100% | – | – | – | – | – | – | – | – | – | 100%

Source: US20220386611A1, “NOVEL HETEROARYL-TRIAZOLE COMPOUNDS AS PESTICIDES” (Bayer Aktiengesellschaft, priority 2019, published 2022)
